The values below come from patent US20220339178A1, “COMPOSITIONS AND METHODS FOR COGNITIVE PROTECTION OF POLLINATORS AGAINST PESTICIDES” (priority 2019, published 2022).

The subject of data set [1] is bumblebee Bombus impatiens. Kind of data set: Olfactory conditioning of PER in bumblebees: ad libitum rutin vs acute imidacloprid or fipronil. To be noted: for learning score relative to Control bees: score 0-10, ad libitum 1 μM rutin three days, 5 nM imidacloprid or 6 nM fipronil 20 μL 2 hours before training. It counts as in vivo. As for the experimental part:
One colony of the bumblebee Bombus impatiens (Koppert Inc) was kept in laboratory conditions. Bees received pollen inside the nests and foraged to a 1M sugar-water feeder outside of the nest. Bees were collected while on the feeder and iced anesthetized to then be randomly assigned to one of two plastic containers where ad libitum self-administration of one of two solutions was allowed to 10 bees: i) 1 M sucrose water or ii) 1 μM Rutin (Sigma-Aldrich R5143) diluted in 1M sucrose water. On the night of the third day, the feeder was removed to starve the bees. On the fourth day, the bees were iced anesthetized and yolked restrained in plastic pipettes. Bees were maintained in the pipettes for the rest of the experiment (two days). One hour after harnessing, the bees were randomly assigned to one of three treatments: i) 20 μL of 1M sucrose water, ii) 20 μL of 1M sucrose water+5 nM imidacloprid, iii) 20 μL of 1M sucrose water+6 nM fipronil. Thus, overall bees belonged to one of six treatments:
Control: ad libitum sucrose water for three days and 20 μL of sucrose water before training
Rutin: ad libitum 1 μM Rutin for three days and 20 μL of sucrose water before training
Imid: ad libitum sucrose water for three days and 20 μL of 5 nM Imidacloprid in 1M sugar water 2 hours before training
Rutin+Imid: ad libitum 1 μM Rutin for three days and 20 μL of 5 nM Imidacloprid in 1M sugar water 2 hours before training
Fipronil: ad libitum sucrose water for three days and 20 μL of 5 nM fipronil in 1M sucrose water 2 hours before training
Rutin+Fipronil: ad libitum […] Rutin for three days and 20 μL of 6 nM fipronil in 1M sugar water 2 hours before training
All bees were blind-trained using olfactory conditioning of the proboscis extension response (PER). Briefly, bees were exposed to a presentation of 1-nonanol (Sigma-Aldrich) for 10 s. After 7 s of the onset of the odor presentation, the antenna was stimulated with 1.5 M sugar-water to elicit the PER. Following the PER, the bee was allowed to drink sugar-water for 3 s. Each paired presentation was considered a training trial and each individual received eleven training trials with an average intertrial interval of 10 minutes. After training, all bees were fed 20 μL of 1M sugar water and maintained in plastic boxes for 24 h until the retention test. […] Twenty-four hours after the last training trial the bees were presented with the conditioned odor for 10 s.
Learning for each individual was quantified as the number of conditioned PER responses across the trials. Thus, for each bee a learning score between zero and ten (0-10) was recorded.
Multiple comparisons were then run comparing learning score relative to Control bees using a non-parametric one or two-tailed Steel Method depending upon predictions. These comparisons informed us about the predicted impairment produced by the insecticides, the predicted innocuous effect of the flavonoid and the potential level of protection. Error due to multiple comparisons was controlled using the False Discovery Rate method (FDR-two stage sharpened method). In all cases corrected p-values (q-values) are presented.
Memory retention was quantified as a nominal variable (yes/no). Data were compared across treatments using a Chi-square test, followed by multiple comparisons of all treatments vs. Control. Error due to multiple comparisons was controlled using the FDR as indicated above. In all cases corrected p-values (q values) are presented.
Latency was quantified as a continuous variable between 0.5 s and 10 s. Data were compared across treatments using an ANOVA following a Log transformation to normalize the distribution (Shapiro-Wilk W Test after log transformation: p>0.05 for all treatments for the null hypothesis that data is from a normal distribution), followed by multiple comparisons between all treatments and the Control group. Error due to multiple comparisons was controlled using the FDR method as indicated above. […]

The subject of data set [2] is Drosophila melanogaster. Nature of the data set: Motor activity (negative geotropic response) test in flies: rutin vs imidacloprid. It counts as in vivo. As for the experimental part: Standard methods were relied on to test motor activity and motor impairments in Drosophila melanogaster (Jimenez-Del-Rio et al. 2010. Neurochem Res 35:227-238). The method relies on the negative geotropic response (i.e. preference to walk up when standing on a wall) of insects. Four-day-old (post eclosion) D. melanogaster females were randomly assigned to one of four treatments: Control (fed on 5% sugar-water), Rutin 0.1 (fed on a solution 0.1 μM rutin in 5% sugar-water), Rutin 1 (fed on a solution 1 μM rutin in 5% sugar-water), Rutin 10 (fed on a solution 10 uM rutin in 5% sugar-water). After three days flies from each group were randomly assigned to one of two treatments: 5% sugar-water or 0.1 μM imid in 5% sugar-water. Thus, flies were in one of eight treatments: Control, Imid, Rut 0.1, Rut 0.1+Imid, Rut 1, Rut 1+Imid, Rut 10, Rut 10+Imid. Flies were exposed to their specific treatment for 22 h.
Following standard methods, flies were transferred to a clean vial and a threshold of 5 cm from the bottom was set on the vial. The bottom of the vial was knocked on the table to assure all flies were moved to the bottom. The number of flies that crossed the threshold within 6 seconds were counted. Data were analyzed using a Chi-square with specific predictions (one-tail tests) for planned comparisons. Error associated with multiple comparisons was corrected using the False Discovery Rate-method (two stage sharpen method).

`O=[N+]([O-])NC1=NCCN1Cc1ccc(Cl)nc1` [Imidacloprid]: in data set [1] (24 h retention), the “odds of remembering for Control bees relative to insecticide bees” value is listed as 12 times and the “proportion difference Control minus insecticide group for a PER response (Adjusted Wald test)” value is reported as 0.51. In data set [1] (bumblebees), the “decision-making ratio (latency of response / learning score) relative to Control bees” value is “significant increase” and the “learning score relative to Control bees” value is on record as “significantly lower”. In addition, the “bees exhibiting a conditioned response after 24 h” value in data set [1] (bumblebees, 24 h retention test) came to 13%. In addition, the “motor performance relative to flies in the control group” value in data set [2] (0.1 μM imid in 5% sugar-water for 22 h, flies crossing 5 cm threshold within 6 seconds) is recorded as “lower performance”. Moreover, the “motor performance relative to flies prophylactically receiving 0.1 μM rutin” value in data set [2] (comparator rutin 0.1 μM then imid) was “significantly lower”. In data set [2] (comparator rutin 1 μM then imid), the “motor performance relative to flies prophylactically receiving 1 NM rutin” value is reported as “significantly lower”. In data set [2] (comparator rutin 10 μM then imid), the “motor performance relative to flies prophylactically receiving 10 μM rutin” value was “significantly lower”.

Turning to `C[C@@H]1O[C@@H](OC[C@H]2O[C@@H](Oc3c(-c4ccc(O)c(O)c4)oc4cc(O)cc(O)c4c3=O)[C@H](O)[C@@H](O)[C@@H]2O)[C@H](O)[C@H](O)[C@H]1O` [Rutin], in data set [1] (bumblebees), the “learning score relative to Control bees” value was “not significantly different”. The “protection against imidacloprid neuromotor impairment” value in data set [2] (flies fed rutin 0.1, 1 or 10 μM for three days before 0.1 μM imid) is recorded as “protected against this impairment”.
